Paper PMC7226989, “Establishment of an in Vitro Human Blood-Brain Barrier Model Derived from Induced Pluripotent Stem Cells and Comparison to a Porcine Cell-Based System” (Cells, 2020)
Read-outs that look alike come from different tables or passages of the source.

Legend:
[1] = Permeability assay across hiPSC-derived BMECs clone 1 on Transwell, co-culture with human astrocytes
[2] = test system: primary porcine brain endothelial cells (PBECs); test: Porcine BBB model transport assay; settings: porcine vs human
[3] = test system: hiPSC-derived BMECs; test: Human BBB model permeability, clone not specified or both clones; settings: for Permeability classification in words: human BBB model, for several compounds stated for both human and porcine models
[4] = in vitro; settings: human
[5] = test system: hiPSC-derived BMECs
[6] = Permeability assay across hiPSC-derived BMECs clone 2 on Transwell, co-culture with human astrocytes
[7] = test system: hiPSC-derived BMECs (IMR-90); settings: cited from earlier work
[8] = in vitro; settings: human; remark: listed apart in the source
[9] = test system: primary porcine brain endothelial cells (PBECs); settings: cited from earlier work
[10] = Human BBB model permeability, clone not specified or both clones; settings: human
[11] = test system: hiPSC-derived BMECs (Cl1); test: Permeability assay across hiPSC-derived BMECs clone 1 on Transwell, co-culture with human astrocytes
[12] = test system: hiPSC-derived BMECs (Cl1)
[13] = test system: hiPSC-derived BMECs (r-iSPC 1j cells); design: method as in Delsing et al. 34; settings: ref Delsing et al. 34; cited from earlier work
[14] = test system: hiPSC-derived BMECs; settings: ref Lippmann 6; cited from earlier work
[15] = test system: human endothelial cell line hCMEC/D3; design: method as in PMID 30374619; settings: cited from earlier work
[16] = test system: hiPSC-derived BMECs (Cl2)

CC(C)[C@H](NC(=O)[C@H](CCC(=O)O)NC(=O)[C@H](Cc1ccccc1)NC(=O)[C@@H](C)NC(=O)[C@@H](N)Cc1ccc(O)cc1)C(=O)N[C@H](C(=O)NCC(N)=O)C(C)C [[D-Ala2]deltorphin II]
Papp: 77 ± 17 nm/s | Papp [1]: 38 ± 5 nm/s | Fold higher permeability in the porcine than in the human model [2]: two-fold | Permeability classification in words [3]: moderate permeability

Cn1c(=O)c2c(ncn2C)n(C)c1=O [caffeine]
Papp [4]: 270 to 310 nm/s | Permeability classification in words [5]: highly permeable | Papp [6]: 265 ± 6 nm/s | Published permeability ([7]; IMR-90 cells, ref Appelt-Menzel et al. 36): 253 nm/s | Papp ([8]; Permeability human BBB_Cl1): 307 ± 20 nm/s

CCC(=O)CCCCCC(NC(=O)C1CN(C)C1)c1ncc(-c2cc3ccccc3nc2OC)o1 (stereo not shown) [cpK]
Permeability porcine BBB [9]: 10.5 ± 3.4 x10^-6 cm/s | Permeability classification in words [3]: medium permeability | Papp [10]: 154 ± 83 nm/s

COc1cccc2c1C(=O)c1c(O)c3c(c(O)c1C2=O)C[C@@](O)(C(C)=O)C[C@@H]3O[C@H]1C[C@H](N)[C@H](O)[C@H](C)O1 [daunomycin]
Papp [4]: 70 to 90 nm/s | Fold higher permeability in the human than in the porcine model [5]: two-fold | Permeability classification in words [5]: medium permeability | Papp [6]: 65 ± 7 nm/s | Papp ([8]; Permeability human BBB_Cl1): 93 ± 27 nm/s

C[C@H]1O[C@@H](O[C@H]2[C@@H](O)C[C@H](O[C@H]3[C@@H](O)C[C@H](O[C@H]4CC[C@@]5(C)[C@H](CC[C@@H]6[C@@H]5C[C@@H](O)[C@]5(C)[C@@H](C7=CC(=O)OC7)CC[C@]65O)C4)O[C@@H]3C)O[C@@H]2C)C[C@H](O)[C@@H]1O [digoxin]
Papp B→A [8]: 73 ± 6 nm/s

NCC1(CC(=O)O)CCCCC1 [gabapentin]
Papp ([1]; human): 119 ± 29 nm/s | Papp [4]: 120 nm/s | Permeability classification in words [3]: moderate to high permeability

OC[C@H]1OC(O)[C@H](O)[C@@H](O)[C@@H]1O (stereo partly shown) [glucose]
Inhibition of transport by phloretin ([11]; 200 µM phloretin): ~80% | Fold higher permeability in the human than in the porcine model ([5]; human and pig): more than 3.5 | Permeability in the porcine model [9]: 70 nm/s | Papp [6]: 252 ± 79 nm/s | Papp ([8]; Permeability human BBB_Cl1): 250 ± 27 nm/s

O=C(O)c1cc(=O)c2ccccc2[nH]1 [kynurenic acid]
Papp [4]: 3 nm/s | Permeability classification in words [5]: low permeability | Permeability in porcine (unit not given) ([9]; porcine model): 2.8 | Papp ([8]; Permeability human BBB_Cl1): 3.2 ± 0.6 nm/s

CC(C)C[C@H](N)C(=O)O [leucine]
Vectorial transport, AB direction over BA direction [12]: three-fold | Reduction of transport in the presence of JPH203 ([11]; 10 µM JPH203, selective LAT1 inhibitor): about 70% | Papp [4]: 180 to 200 nm/s | Fold higher permeability in the human than in the porcine model [5]: about three-fold | Permeability classification in words [5]: highly permeable | Papp [6]: 199 ± 64 nm/s | Papp A→B [8]: 185 ± 22 nm/s | Papp B→A [8]: 64 ± 7 nm/s | Papp ([8]; Permeability human BBB_Cl1): 180 ± 18 nm/s

OC[C@@H](O)[C@@H](O)[C@H](O)[C@H](O)CO [mannitol]
Papp [6]: 8 ± 1 nm/s | Papp ([8]; Permeability fresh): 5.6 ± 2.8 nm/s | Papp ([8]; Permeability frozen): 6.7 ± 2.5 nm/s | Papp ([8]; Permeability human BBB_Cl1): 6 ± 2.4 nm/s

CN(Cc1cnc2nc(N)nc(N)c2n1)c1ccc(C(=O)N[C@@H](CCC(=O)O)C(=O)O)cc1 [methotrexate]
Papp [6]: 7.7 ± 1 nm/s | Fold higher permeability in the porcine than in the human model [2]: eight times | Papp ([8]; Permeability human BBB_Cl1): 6.5 ± 1.2 nm/s

N[C@@H](Cc1ccccc1)C(=O)O [phenylalanine]
Papp [6]: 286 ± 57 nm/s | Fold higher permeability in the human than in the porcine model ([3]; human vs porcine): two-fold

O=C1NC(=O)C(c2ccccc2)(c2ccccc2)N1 [phenytoin]
Published permeability [13]: 356 nm/s | Papp ([1]; human, Permeability human BBB_Cl1, Figure 5C, mean ± sd): 213 ± 21 nm/s | Papp [6]: 186 ± 9 nm/s | Permeability classification in words [3]: highly permeable | Papp [10]: 190 to 210 nm/s

COc1cc2nc(N3CCN(C(=O)c4ccco4)CC3)nc(N)c2cc1OC [prazosin]
Published permeability ([7]; ref Kurosawa 20): 87 nm/s | Published permeability [14]: 43 nm/s

CC(C)C[C@H](CN)CC(=O)O [pregabalin]
Inhibition in the uptake after LAT-1 mRNA silencing [15]: 75%

CC(C)NCC(O)COc1cccc2ccccc12 (stereo not shown) [propranolol]
Published permeability [13]: 226 nm/s | Papp [4]: 220 to 260 nm/s | Permeability classification in words [5]: highly permeable | Papp [6]: 220 ± 24 nm/s | Published permeability ([7]; ref Mantle et al. 35): around 30 × 10^−6 cm/s | Papp ([8]; Permeability human BBB_Cl1): 258 ± 46 nm/s

CC(=O)O[C@H]1C(=O)[C@@]2(C)[C@H]([C@H](OC(=O)c3ccccc3)[C@]3(O)C[C@H](OC(=O)[C@H](O)[C@@H](NC(=O)c4ccccc4)c4ccccc4)C(C)=C1C3(C)C)[C@]1(OC(C)=O)CO[C@@H]1C[C@@H]2O [taxol]
Papp [6]: 49 ± 10 nm/s | Papp A→B [8]: 63 ± 6 nm/s | Papp B→A [8]: 154 ± 5 nm/s | efflux ratio [8]: 2.4 | Papp ([8]; Permeability human BBB_Cl1): 68 ± 7 nm/s

CC[C@]1(O)C[C@@H]2CN(CCc3c([nH]c4ccccc34)[C@@](C(=O)OC)(c3cc4c(cc3OC)N(C)[C@H]3[C@@](O)(C(=O)OC)[C@H](OC(C)=O)[C@]5(CC)C=CCN6CC[C@]43[C@@H]65)C2)C1 [vinblastine]
Fold higher permeability in the human than in the porcine model [5]: two-fold | Permeability classification in words [5]: medium permeability | Papp [6]: 35 ± 8 nm/s | efflux ratio [8]: 1.5 | Papp ([8]; Permeability human BBB_Cl1): 41 ± 4 nm/s

lucifer yellow
Permeability A-B [12]: 0.15 ± 0.001 x10^-6 cm/s | Permeability B-A [12]: 0.13 ± 0.004 x10^-6 cm/s | Permeability fresh [12]: 0.21 ± 0.12 x10^-6 cm/s | Permeability frozen [12]: 0.09 ± 0.04 x10^-6 cm/s | Permeability human BBB_Cl1 [12]: 0.18 ± 0.11 x10^-6 cm/s | efflux ratio [12]: 0.9 | Permeability human BBB_Cl2 [16]: 0.33 ± 0.30 x10^-6 cm/s
